# US6844328B2, “Polysaccharidic esters of N-derivatives of glutamic acid” (Eurand Pharmaceuticals Ltd., priority 2000, dated 2005)
# Test system: dihydrofolate reductase (DHFR)
# Details: MT 2.2×10^−5 M; 30° C.; absorbance at 340 nm
# Description: Reagents and test samples were added to 3 ml disposable cuvettes to the required volume of distilled water in the following order: H2O (0.1-0 ml), 1.5 M Na-acetate buffer (1 ml), 1.8 M KCl (1 ml), 3 mM NADPH (0.15 ml), test solution in PBS (0-0.1 ml), dihydrofolate reductase (DHFR) (ca. 0.01 Uμl) (5 μl). All reagents were purchased from Sigma. The DHFR was introduced, mixed and incubated at 30° C. for 2 min. The reaction was initiated by the addition of dihydrofolic acid (3 mM, 0.15 ml), and the decrease in absorbance with the time at 340 nm was followed.
# A control reaction, which contained 0.1 ml of PBS as test solution was included.
structure (smiles),measurement,value
CN(Cc1cnc2nc(N)nc(N)c2n1)c1ccc(C(=O)N[C@@H](CCC(=O)O)C(=O)O)cc1 [MT],inhibition of DHFR activity,completely inhibited
